US20110046368A1, “LIGANDS OF 5-HT6 RECEPTORS, A PHARMACEUTICAL COMPOSITION, METHOD FOR THE PRODUCTION AND USE THEREOF” (priority 2006, published 2011)
Like-named read-outs stand apart in the source and are kept apart here.

Target: T1, serotonin 5-HT6 receptors (Homo sapiens, UniProt P50406)
T1 construct: expressed in transfected cells; host or cells: HeLa cells (membranes)
Assay: [3H]LSD displacement from 5-HT6 receptors expressed in HeLa cell membranes
Type: binding
Conditions: for Interaction efficiency of compounds of the general formula 1 with 5-HT6 receptor, %: displacement of 1.5 nM [3H]LSD, tested compounds at 10 mkM, 2 hr at 37° C.
Experimental: Investigation of ligand activity of azaheterocyclic compounds of the general formula 1 to 5-HT6 receptor. A focused library, including 3537 azaheterocyclic compounds of the general formula 1, their geometric isomers and pharmaceutically acceptable salts were tested for ligand activity to 5-HT6 receptor. Some examples of the tested azaheterocyclic compounds of the general formula 1 are represented in Tables 1-3, including: pyrrolo[4,3-b]indoles 1.2, 1.3 (Table 1), γ-carbolines 1.5, 1.6, 1.7 (Table 2) and azepino[4,3-b]indoles 1.10, 1.12, 1.13 (Tables 3). Ligand activity was determined by the ability of azaheterocyclic compounds of the general formula 1 to displace concurrently tritium-labelled diethyl […] of lysergic acid ([^3H]LSD), specifically bound to serotonin 5-HT6 receptors, which are expressed in HeLa cells membranes [Monsma F J Jr, Shen Y, Ward R P, Hamblin M W and Sibley D R (1993). Cloning and expression of a novel serotonin receptor with high affinity for tricyclic psychotropic drugs. Mol. Pharmacol. 43:320-3271. Cells membranes were incubated with 1.5 nM [^3H]LSD for 2 hr at 37° C. without and in the presence of tested compounds of 10 mkM concentration in the medium comprising: 50 mM Tris-HCl, pH 7.4, 150 mM NaCl, 2 mM ascorbic acid and 0.001% of bovine serum albumin. Nonspecific binding of [^3H]LSD was determined in the presence of 5 mkM of serotonin (5-HT). After incubation membrane suspensions were filtered through glass microfiber filters GF/A (Millipor, USA) and the residual radioactivity was measured by scintillation counter Microbeta 1840 (PerkinElmer). Investigated compounds interacted effectively with 5-HT6 receptor.
Measurements were carried out as it is described in example 1, except that the tested compounds were taken in various concentrations and % of displacement of [^3H]LSD was plotted as a function of compound's concentration (FIG. 1), on the basis of which IC50 (concentration of halfmaximum blocking of [^3H]LSD binding) values characterizing the seeming affinity of substituted azaheterocyclic compounds of the general formula 1 to 5-HT6 receptor were calculated (Table 5).

[1] = [3H]LSD displacement at various compound concentrations, HeLa cell membranes, read-out: IC50 (concentration of halfmaximum blocking of [3H]LSD binding), seeming affinity to 5-HT6 receptor

T1 sequence (P50406 whole entry): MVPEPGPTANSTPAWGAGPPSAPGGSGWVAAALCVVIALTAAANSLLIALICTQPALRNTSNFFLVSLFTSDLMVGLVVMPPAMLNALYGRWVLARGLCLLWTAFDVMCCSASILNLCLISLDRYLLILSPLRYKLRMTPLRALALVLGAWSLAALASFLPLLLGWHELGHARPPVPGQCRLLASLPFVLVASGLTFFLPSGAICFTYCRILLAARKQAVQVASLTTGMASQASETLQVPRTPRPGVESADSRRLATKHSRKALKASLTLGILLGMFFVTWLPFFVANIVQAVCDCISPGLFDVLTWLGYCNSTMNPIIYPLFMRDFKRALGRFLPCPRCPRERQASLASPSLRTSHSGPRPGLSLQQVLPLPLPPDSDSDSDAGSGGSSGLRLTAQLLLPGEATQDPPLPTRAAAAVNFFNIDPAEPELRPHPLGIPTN

For `Cc1ccc(S(=O)(=O)n2c3c(c4cc(C)ccc42)CN(C)C3)cc1` [1.2(39)], the “Interaction efficiency of compounds of the general formula 1 with 5-HT6 receptor, %” value (“Interaction efficiency of compounds … %” below) (HeLa cell membranes) was 77%.
For `Cc1ccc2c(c1)[C@@H]1CN(C)C[C@@H]1N2CCc1ccc(C)nc1` [1.3(9)], the “Interaction efficiency of compounds … %” value (HeLa cell membranes) was 27%.
`CN1CCc2c(c3ccccc3n2Cc2ccccc2)C1` [1.5(18)] was tested, and the “Interaction efficiency of compounds … %” value (HeLa cell membranes) was 71%.
For `Cc1ccc2c(c1)c1c(n2CCc2ccc(C)nc2)CCN(C)C1` [1.5(20)], the IC50 [1] was 74 nM and the “Interaction efficiency of compounds … %” value (HeLa cell membranes) was 100%.
For `Cc1ccc2c(c1)C1CN(C)CCC1N2C(=O)c1ccccc1` (centres unmarked) [1.6(6)], the “Interaction efficiency of compounds … %” value (HeLa cell membranes) was 52%.
For `Cc1ccc2c(c1)C1CN(C)CCC1N2S(=O)(=O)c1nc2cc(C)nc(C)n2n1` (centres unmarked) [1.6(22)], the “Interaction efficiency of compounds … %” value (HeLa cell membranes) was 82%.
With `Cc1ccc2c(c1)[C@@H]1CN(C)CC[C@@H]1N2C(=O)Nc1cccc(C(F)(F)F)c1` [1.7(1)] the “Interaction efficiency of compounds … %” value (HeLa cell membranes) was 47%.
`Cc1ccc2c(c1)c1c(n2CCc2ccccn2)CCCN(C)C1` [1.10(49)] was tested, and the “Interaction efficiency of compounds … %” value (HeLa cell membranes) was 88%.
`Cc1ccc(CCn2c3c(c4cc(C)ccc42)CN(C)CCC3)nc1` [1.10(50)] was tested, and the IC50 [1] was 1250 nM and the “Interaction efficiency of compounds … %” value (HeLa cell membranes) was 84%.
`Cc1ccc2c(c1)c1c(n2CCc2ccncc2)CCCN(C)C1` [1.10(51)] was tested, and the IC50 [1] was 1060 nM and the “Interaction efficiency of compounds … %” value (HeLa cell membranes) was 84%.
With `Cc1ccc2c(c1)c1c(n2CCc2cccnc2)CCCN(C)C1` [1.10(53)] the IC50 [1] was 738 nM and the “Interaction efficiency of compounds … %” value (HeLa cell membranes) was 79%.
In the case of `Cc1ccc2c(c1)[C@@H]1CNCCC[C@@H]1N2CCc1cccnc1` [1.12(12)], the “Interaction efficiency of compounds … %” value (HeLa cell membranes) is reported as 84%.
For `Cc1ccc2c(c1)[C@@H]1CNCCC[C@@H]1N2CCc1ccc(C)nc1` [1.12(13)], the “Interaction efficiency of compounds … %” value (HeLa cell membranes) was 76%.
With `Cc1ccc2c(c1)[C@@H]1CN(C)CCC[C@H]1N2CCc1ccc(C)nc1` [1.13(3)] the “Interaction efficiency of compounds … %” value (HeLa cell membranes) was 93%.
With `Cc1ccc2c(c1)[C@@H]1CN(C)CCC[C@H]1N2CCc1cccnc1` [1.13(13)] the IC50 was 787 nM and the “Interaction efficiency of compounds … %” value (HeLa cell membranes) was 93%.
